Laboratory results reported in US20250332108A1 (Veradermics, Incorporated, priority 2024, published 2025).
Where two headings read alike, the source gives them in different places.

Columns and labels:
mouse bone marrow = mouse bone marrow micronucleus assay; cited from earlier work
mice = conditions: dietary, cited from earlier work
[1] = tested on: person with androgenetic alopecia; experiment: Case studies: oral minoxidil in males with androgenetic alopecia (blood pressure, heart rate, hair growth)
patients = conditions: cited from earlier work
rats [2] = conditions: cited from earlier work
[3] = cited from earlier work
rabbits = conditions: cited from earlier work
human lymphocytes = conditions: cited from earlier work
rat hepatocyte = conditions: in vitro rat hepatocyte unscheduled DNA synthesis assay; cited from earlier work
Salmonella = Salmonella (Ames) test; cited from earlier work
rat bone marrow = rat bone marrow micronucleus assay; cited from earlier work
[4] = cited from earlier work; for Duration plasma concentrations above 20 ng/ml: immediate release
Chinese hamster cells = Chinese hamster cells at long exposure times; cited from earlier work
dogs = conditions: short-term administration 0.5 mg to 10 mg/kg/day; cited from earlier work
male adults with AGA = conditions: 5 mg oral at bedtime, cited from earlier work
subjects with hair loss = conditions: cited from earlier work
hypertensive patients = conditions: intravenous infusion; cited from earlier work
rats [5] = conditions: cited from earlier work; remark: listed apart in the source
[6] = oral, dose level 2.5 mg, healthy volunteers
[7] = oral, dose level 5 mg, healthy volunteers
[8] = oral, dose level 10 mg, healthy volunteers

In the case of `Nc1cc(N2CCCCC2)nc(N)[n+]1[O-]` [Minoxidil], the Mutagenicity (mouse bone marrow) is listed as “not mutagenic”, the “Incidence of hepatic nodules” value (mice; up to 2 years, 63 mg/kg/day) is listed as “increased incidence of hepatic nodules in males” and the “Incidence of malignant lymphomas” value (mice; up to 2 years, 10, 25, and 63 mg/kg/day) is listed as “increased incidence of malignant lymphomas in females at all dose levels”. For the same compound, the Adverse events ([1]; 0.625 mg four times a day) was “No unwanted hair growth or other adverse events were noticed”, the “Effect on blood pressure” value ([1]; 0.625 mg four times a day) was “did not experience significant reductions in blood pressure” and the Adverse events ([1]; 1.25 mg QID) was “No unwanted hair growth or other adverse events, including any cardiac effects, were noticed”. The “Temporary decrease in hematocrit, hemoglobin, and erythrocyte count (hemodilution)” value (patients; chronic therapy for severe hypertension, initially) was “approximately 7%”, the “Patients in whom hypertrichosis was hardly or not at all tolerable” value (patients; human, in vivo) was “less than 10%” and the “Plasma concentrations above which hemodynamic effects are typically seen” value (patients; human, in vivo) was over 20 ng/mL. For the same compound, the “Patients exhibiting ECG alterations in direction and magnitude of T waves” value (patients; soon after starting therapy) was “approximately 60%”, the Carcinogenicity (rats [2]; doses 15 times the usual human dosage for 22 months) was “No evidence of carcinogenicity” and the Carcinogenicity findings (rats [2]; oral administration, two-year study) was “no positive findings”. The “Predominant metabolite in urine” value ([3]; first 12 h, hypertensive patients) was “A glucuronide conjugate”, the Renal clearance ([3]; human, in vivo) was 73.3 mL/min and the “Radioactivity found in feces” value ([3]; hypertensive patients) was 3%. For the same compound, the “Total radioactivity recovered from urine” value ([3]; hypertensive patients) was 97%, the “Time to peak plasma levels” value ([3]; oral) was at most 1 h and the “Fraction of oral minoxidil metabolized” value ([3]; primarily by conjugation with glucuronic acid) was “About 90%”. For the same compound, the “Radiolabeled minoxidil and metabolites recovered from urine” value ([3]; within 24 h after oral administration, hypertensive patients) was “Over 80%”, the Fetal resorption (rabbits; 5 times the maximum recommended oral antihypertensive human dose) was “increased fetal resorption” and the Teratogenic effects (rabbits) was “no evidence of teratogenic effects”. The Cytogenetic assay result (human lymphocytes) was “negative”, the Mutagenicity (rat hepatocyte) was “not mutagenic” and the Mutagenicity (Salmonella) was “not mutagenic”. The Mutagenicity (rat bone marrow) was “not mutagenic”, the “Dose dependence of PK and urinary excretion” value ([4]; 2.5 mg, 5 mg, or 10 mg oral, healthy volunteers) was “dose-independent PK” and the “Effect on blood pressure” value ([4]; 2.5 mg, 5 mg, or 10 mg oral, normotensive subjects) was “little effect on blood pressure in normotensive subjects”. For the same compound, the “Duration plasma concentrations above 20 ng/ml” value ([4]; 5 mg dose level) was “around 1 h”, the “Duration plasma concentrations above 20 ng/ml” value ([4]; 10 mg dose level) was “around 2 h” and the Observed half-life ([4]; immediate release formulation, oral) was “around 1 h”. The “AUC(last)” value [4, 6] was 25.3 ng·h/mL, the Cmax [4, 6] was 16.8 ng/mL and the T1/2 [4, 6] was 64.2 min. For the same compound, the Tmax [4, 6] was 34 min, the “AUC(last)” value [4, 7] was 55.1 ng·h/mL and the Cmax [4, 7] was 37.2 ng/mL. The T1/2 [4, 7] was 76.2 min, the Tmax [4, 7] was 23.3 min and the “AUC(last)” value [4, 8] was 112 ng·h/mL. The Cmax [4, 8] was 74.7 ng/mL, the T1/2 [4, 8] was 80.4 min and the Tmax [4, 8] was 25.1 min. The Cytogenetic assay result (Chinese hamster cells) was “equivocal result”, the Cardiac lesions (dogs) was “various cardiac lesions have been found” and the Subjects reporting edema (male adults with AGA; 24 week follow up, 34 subjects) was 2.9%. For the same compound, the Subjects reporting headache (male adults with AGA; 24 week follow up, 34 subjects) was 20.6%, the Subjects reporting vertigo (male adults with AGA; 24 week follow up, 34 subjects) was 2.9% and the Subjects reporting hypertrichosis (male adults with AGA; 24 weeks, 34 subjects) was 55.9%. For the same compound, the Adverse cardiovascular outcomes (male adults with AGA; 24 weeks) was “No adverse cardiovascular outcomes were observed”, the “Serious adverse events (SAEs) reported” value (subjects with hair loss; topical foam 5% versus topical solution 2% in female pattern hair loss, 322 subjects, NCT01145625) was “Ten serious adverse events (SAEs) were reported” and the “SAEs reported in subjects treated with minoxidil” value (subjects with hair loss; topical foam 5% versus vehicle topical foam, 404 subjects, NCT01226459) was “Six SAEs were reported”. The “Steady state plasma concentrations associated with significant (>5 beats per minute) changes in heart rate” value (hypertensive patients) was “above 20 ng/mL”, the Fetal resorption (rats [5]) was “not seen” and the Teratogenic effects (rats [5]) was “no evidence of teratogenic effects”.
